Experimental findings from a melting point compilation (Tetko et al.) are described below.

The structures appear in SMILES notation.

The molecule `O=C(Oc1c(F)c(F)c(F)c(F)c1F)C1CCN(c2ncnc3ccsc23)CC1` gave a melting point of 99 to 104 °C.

Molecule `O=[N+]([O-])c1ccc(Oc2c(Cl)cc(Cl)cc2Cl)cc1` registered a melting point of 106 °C.

For `CCCc1ccccc1/C=N/Nc1ccc([N+](=O)[O-])cc1[N+](=O)[O-]`, the melting point came out at 228 °C.

`CN(CC(=O)O)C(=O)c1ccccc1` displayed a melting point of 101 to 105 °C.

`Nc1ccccc1-n1ccnc1` had a melting point of 106 to 107 °C.

Regarding `NNc1nc(N)nc(C23CC4CC(CC(C4)C2)C3)n1`, the melting point was in the range of 265 to 267 °C.

`O=[N+]([O-])c1cccc(-n2cccc2)c1` displayed a melting point of 72 to 74 °C.

`NC(=O)NN=Cc1ccc2c(Br)cccc2c1` showed a melting point of 270 °C.

With `Oc1cc(O)ncn1`, the melting point came to 300 °C.

On to `CC(C)(C)N(NC(=O)c1ccccc1)C(=O)c1ccccc1Cl`, for which the melting point is 162 °C.

`Cc1ccccc1-c1ccccc1P(C(C)(C)C)C(C)(C)C` yielded a melting point of 91.5 °C.

The molecule `CCCCCCCCc1ccccc1` had a melting point of -36 °C.

`O=Cc1ccccc1N1CCOCC1` came in with a melting point of 45 to 46 °C.

In turn, `FC(F)(F)C(F)(F)C(F)(F)C(F)(F)I` yielded a melting point of -68 °C.

Regarding `Clc1noc2ccccc12`, the melting point is 31 °C.

As to `FC(F)(F)c1cc(Cl)c2nc(S)[nH]c2c1`, the melting point is 310 to 312 °C.

Consider `c1ccc(-c2nnc3n2CN(c2ccccc2)CS3)cc1`, for which the melting point worked out at 205 °C.

In turn, `Cc1ccc2c(-c3ccccc3)nc(=O)n(C(C)C)c2c1` gave a melting point of 138 °C.

Molecule `COc1ccc(C(C)NCC(OC)OC)cc1O` (stereo unspecified) came in with a melting point of 88 °C.

For `CC1=CC(=O)NS(=O)(=O)O1`, the melting point worked out at 123 °C.

`CCO[P@](=O)(c1ccc(OC)cc1)N1Cc2ccccc2C[C@@H]1C(=O)NO` returned a melting point of 167 °C.

Take `N#CCCOc1ccc(Cl)cc1`: the melting point was in the range of 45 to 47 °C.

`O=C(O)c1ccccc1`: the melting point worked out at 122 °C.

As to `COc1ccc(C2(C)CCc3oc4ccccc4c3-c3oc(C)cc32)cc1` (stereo unspecified), the melting point came out at 145 °C.

As for `CCCCc1ccc(C(=O)O)cc1`, the melting point was found to be 106 °C.

With `O=Cc1cccc(NS(=O)(=O)c2ccccc2)c1`, the melting point is 104 to 108 °C.

`N#Cc1cc(-c2ccccc2)oc1N` returned a melting point of 196 to 197 °C.

With `CCC(=O)OC1CCC2(C)C(=CCC3C2CCC2(C)C(C(C)CCCC(C)C)CCC32)C1` (stereo unspecified), the melting point is 97 to 100 °C.

Consider `CCCCCCCCC(=O)NCc1ccc(O)c(OC)c1`, for which the melting point was 57 °C.

Molecule `COc1ccc(/C(C(=O)c2ccccc2)=C2/C(=O)N(C(C)=O)c3ccccc32)cc1` had a melting point of 180 °C.

Take `O=C(NC(=O)c1c(F)cccc1F)Nc1cc(Cl)c(OC(F)(F)C(F)F)c(Cl)c1`: the melting point was 204 °C.

`CC(C)(C)OC(=O)N[C@H]1CCC[C@H]1C(=O)O` (relative stereo) yielded a melting point of 90 to 94 °C.

The molecule `CCC1(O)c2ccccc2C1C` (stereo unspecified) gave a melting point of 52 °C.

In turn, `O=C(O)c1ccc(N2CCOCC2)cc1` registered a melting point of 278 to 281 °C.

In turn, `c1ccc(CNCc2ccccc2)cc1` showed a melting point of -26 °C.

The molecule `CN1C(=O)C(=NNc2c(Br)cc(Br)cc2Br)C(=O)N(C)C1=O` showed a melting point of 165 °C.

As for `C/C=C/C1Nn2c(nnc2-c2ccccc2OC)S1` (stereo unspecified), the melting point is 124 to 126 °C.

As to `Nc1ccc(Cl)cc1C(=O)O`, the melting point lay in the range of 209 to 213 °C.

As to `NC(=O)CC(O)C(=O)O` (stereo unspecified), the melting point amounted to 148 °C.

Consider `CC(/N=N/c1cc(Cl)cc(Cl)c1O)=C(/C(=O)N1CCOCC1)N1CCOCC1`, for which the melting point worked out at 76.5 °C.

`Cc1ccc(Cl)c([N+](=O)[O-])c1` yielded a melting point of 7 °C.

In turn, `NC(=O)c1sccc1N` registered a melting point of 120 to 122 °C.

In turn, `CC(=O)OC[C@H]1O[C@@H](OC(C)=O)[C@H](OC(C)=O)[C@@H](OC(C)=O)[C@H]1OC(C)=O` displayed a melting point of 144 °C.

Regarding `O=C(N=NC(=O)N1CCCCC1)N1CCCCC1`, the melting point was 135 °C.

The molecule `CCOC(=O)c1ccc(O)c(O)c1` gave a melting point of 134 °C.

For the molecule `OCCN1CCN(c2nccc(C(F)(F)F)n2)CC1`, the melting point lay in the range of 70 to 71 °C.

For the molecule `O=C(O)C1(C(F)(F)F)CC1`, the melting point was 88 °C.

Take `O=C1OC(=O)c2c1cccc2[N+](=O)[O-]`: the melting point fell in the range of 160 to 165 °C.

Molecule `CCOC(=O)c1sc(-c2ccc(C)cc2)nc1O` gave a melting point of 128 to 130 °C.

As for `CC1=Nc2c(ccc3ccccc23)C1(C)C`, the melting point was determined as 71 °C.

Consider `O=C(O)c1cc([N+](=O)[O-])c(O)c([N+](=O)[O-])c1`, for which the melting point was 250 °C.

As for `O=C(Nc1ccccc1)C1Cc2ccccc21` (stereo unspecified), the melting point came to 161 °C.

Turning to `O=Cc1ccc2c(c1)C(=O)c1c(Cl)c(Cl)c(Cl)c(Cl)c1C2=O`, the melting point came out at 183 °C.

As for `Cc1ccc(I)cc1`, the melting point stood at 37.8 °C.

For the molecule `COc1ccc2c(c1)CC1(CCC(c3ccc(C(C)(C)C)cc3)CC1)C2=O` (stereo unspecified), the melting point is 166 to 167 °C.

`O=C(O)c1cc(C(F)(F)F)ccc1N1CCOCC1` gave a melting point of 175 to 177 °C.

In turn, `NC(=O)c1sc(NCc2ccccc2)nc1N` came in with a melting point of 196 to 198 °C.

Take `CCOC(=O)C(C(=O)OCC)=C(C(=O)OCC)C(=O)OCC`: the melting point turned out to be 58 °C.

As to `Oc1ccc2ccc(O)cc2c1`, the melting point was 193 °C.

Molecule `O=C1c2ccccc2C(=O)C1(O)O` yielded a melting point of 250 °C.

The molecule `Clc1nc2ccccc2s1` yielded a melting point of 31.5 °C.

On to `COc1ccc(-c2csc(/C(C#N)=C/c3ccccc3Cl)n2)cc1`, for which the melting point stood at 222 °C.

With `OCc1cccc(C(F)(F)F)c1Cl`, the melting point was 76 °C.

Molecule `c1ccc(-c2cc(-c3ccccc3)cc(-c3ccccc3)c2)cc1` showed a melting point of 172 to 175 °C.

As to `CC(C)c1ccc(O)c(O)c1`, the melting point came out at 78 °C.

Molecule `Cn1c(CO)cc2sccc21` had a melting point of 103 to 104 °C.

The molecule `O=[N+]([O-])c1cccc2c(Br)n[nH]c12` registered a melting point of 175 to 185 °C.

Regarding `CC(C)(C)C(=O)Nc1ccccc1Cc1ccccc1`, the melting point lay within 86 to 90 °C.

On to `COc1ccc(C=Cc2cc(O)cc(OC3OC(CO)C(O)C(O)C3O)c2)cc1O` (stereo unspecified), for which the melting point was 236 °C.

In turn, `Cc1ccc(NN=C2C(=O)NN=C2C(F)(F)F)cc1` gave a melting point of 230 °C.

As for `N#Cc1c(F)cccc1Oc1ccccc1`, the melting point is 92 to 96 °C.

In turn, `O=C(OC(=O)c1ccncc1)c1ccncc1` came in with a melting point of 133 °C.

The molecule `Cc1cc(C(F)(F)F)n2nc(N)c(/N=N/c3cccc4ccccc34)c2n1` registered a melting point of 236 °C.

Molecule `CCCCC(CC)COP(=O)(O)OCC(CC)CCCC` (stereo unspecified) gave a melting point of -50 °C.

For `NC(=O)N1C(=O)C=CC1=O`, the melting point was 159 °C.

For `O=C(Nc1ccccn1)c1cc([N+](=O)[O-])cc([N+](=O)[O-])c1`, the melting point came to 201 °C.

On to `COc1cc(N=C=S)cc(OC)c1OC`, for which the melting point was found to be 65 °C.

`CCCCCCCCCCCCCCCCCCN(C)C`: the melting point is 22.9 °C.

`O=S(=O)(Cl)c1cc(OCC(F)(F)F)ccc1OCC(F)(F)F` came in with a melting point of 47 to 50 °C.

Molecule `CCC(C)(C)c1cc(O)c(C(C)(C)CC)cc1O` showed a melting point of 180 °C.

Regarding `CCC1CC(N)(C(=O)O)CC(C)(C)N1O` (stereo unspecified), the melting point came to 230 °C.

In the case of `CC(C)(C)c1ccc(C(N)=S)cc1`, the melting point is 145 to 148 °C.

The molecule `CCCCCCCCCCCCCC(=O)Oc1ccc(N=Cc2cccnc2)cc1` showed a melting point of 82.7 °C.

Molecule `CN1CCN(C)c2cc(Br)ccc21` yielded a melting point of 55 to 56 °C.

`Cc1cc2occc(=O)c2cc1Cl` gave a melting point of 171 °C.

The molecule `O=C1C=C2C(=CCOC2O)O1` (stereo unspecified) gave a melting point of 111 °C.

With `S=C1NC(=S)C(c2ccccc2)(c2ccccc2)N1`, the melting point was 263 °C.

For the molecule `CC(=O)OC(OC(C)=O)c1cccc([N+](=O)[O-])c1`, the melting point amounted to 72 °C.

`O=C1N[C@H]2CC[C@@H]1C2`: the melting point came to 76.2 °C.

Turning to `O=C(Cl)c1ccc2c(c1)CCO2`, the melting point lay in the range of 49 to 51 °C.

Take `CC(Nc1ccc(Br)cn1)=C(C#N)C(=O)c1ccccc1`: the melting point lay in the range of 179 to 181 °C.

Turning to `COc1ccc(N)c(C)c1`, the melting point was determined as 29.5 °C.

The molecule `Cc1ccc(C=C(Oc2cccc(C)c2)c2nc3ccccc3s2)cc1` showed a melting point of 137 to 139 °C.

As for `BrCc1sc(-c2ccccc2)nc1-c1ccccc1`, the melting point lay within 112 to 114 °C.

As to `ClCC(Br)CBr` (stereo unspecified), the melting point was 6 °C.

As for `Nc1ccc(Nc2ccc([N+](=O)[O-])cc2[N+](=O)[O-])cc1`, the melting point stood at 188 °C.

Molecule `O=C(c1ccc2ccccc2c1)C(Br)c1ccccc1` (stereo unspecified) displayed a melting point of 101 to 108 °C.

Consider `CC(C)CCCC(C)C1CCC2C3CC=C4CC(Cl)CCC4(C)C3CCC12C` (stereo unspecified), for which the melting point is 97 °C.

`COc1cccc(F)c1` came in with a melting point of -35 °C.

Molecule `O=C(O)C=Cc1cccs1` displayed a melting point of 145 to 148 °C.

Consider `O=[N+]([O-])c1ccc(N2CCOCC2)cc1`, for which the melting point amounted to 152 °C.

Consider `CS(=O)(=O)Cc1ccccc1`, for which the melting point was found to be 126 °C.

Regarding `CCP(=S)(CC)CC`, the melting point worked out at 95 °C.

For the molecule `N#CCCNCC(=O)O`, the melting point was in the range of 188 to 193 °C.

Consider `C[Si](C)(C)NC(=O)N[Si](C)(C)C`, for which the melting point came to 232 °C.

`C#CC(C)(C)N`: the melting point was determined as 18 °C.

For the molecule `O=C(O)c1ccc(Cc2ccc(C(=O)O)cc2)cc1`, the melting point was in the range of 346 to 350 °C.

For `CCc1ccc(C(C)=O)cc1`, the melting point was -20.6 °C.

As for `O=Cc1cnc2ccccc2n1`, the melting point lay within 108 to 111 °C.

Molecule `CC(CC(=O)O)CC(C)(C)C` (stereo unspecified) came in with a melting point of -70 °C.

`CN(CC(=O)O)C(=O)OC(C)(C)C` had a melting point of 91 °C.
